# Measurements published in PubChem BioAssay (NCI).
#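 Assay format: 96-well plates, 48-hour exposure. At the GI50, growth is halved. TGI marks complete inhibition of growth.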
# Key:
# Test in all cases: NCI anticancer screen, dose series, 48 h
# MOLT-4 leukemia = system: MOLT-4 leukemia
# UACC-257 melanoma = system: UACC-257 melanoma
# OVCAR-4 ovarian = system: OVCAR-4 ovarian
# ACHN renal = system: ACHN renal
# SK-MEL-28 melanoma = system: SK-MEL-28 melanoma
# HCT-15 colon = system: HCT-15 colon
# SR leukemia = system: SR leukemia
# CAKI-1 renal = system: CAKI-1 renal
# K-562 leukemia = system: K-562 leukemia
# OVCAR-5 ovarian = system: OVCAR-5 ovarian
SMILES,GI50 (MOLT-4 leukemia) [µM],TGI (MOLT-4 leukemia) [µM],GI50 (UACC-257 melanoma) [µM],TGI (UACC-257 melanoma) [µM],GI50 (OVCAR-4 ovarian) [µM],TGI (OVCAR-4 ovarian) [µM],GI50 (ACHN renal) [µM],TGI (ACHN renal) [µM],GI50 (SK-MEL-28 melanoma) [µM],TGI (SK-MEL-28 melanoma) [µM],GI50 (HCT-15 colon) [µM],TGI (HCT-15 colon) [µM],GI50 (SR leukemia) [µM],TGI (SR leukemia) [µM],GI50 (CAKI-1 renal) [µM],TGI (CAKI-1 renal) [µM],GI50 (K-562 leukemia) [µM],TGI (K-562 leukemia) [µM],GI50 (OVCAR-5 ovarian) [µM],TGI (OVCAR-5 ovarian) [µM]
NS(=O)(=O)c1ccc(CCN=C=S)cc1,3.05,> 100,2.74,9.24,1.9,4.15,1.85,3.65,2.59,7.28,1.3,3.37,2.44,> 100,1.53,3.03,2.54,> 100,1.85,3.78
COc1cc(C(=O)c2cc3c(cc2C)OCO3)cc(OC)c1OC,0.117,> 100,91.7,> 100,0.83,> 100,0.289,> 100,0.0879,> 100,0.0528,> 100,0.0417,> 100,0.208,> 100,0.051,> 100,0.439,> 100
C[C@@H]1C=C2C(=O)O[C@@H]3CC[C@H](C1)[C@]23O,3.08,21,2.33,16.2,5.45,45.3,3.93,16.9,6.17,25.8,3,18.1,3.51,19.6,,12.7,2.7,34.6,2.82,10.8
O=C(Nc1nc2ncn(CC(COc3ccccc3)OC(=O)c3ccccc3)c2c(=O)[nH]1)c1ccccc1 (centres undefined),,> 100,,> 100,,> 100,,> 100,,> 100,,> 100,,> 100,,> 100,,> 100,,> 100
COc1cc2nc(Nc3cccc(F)c3)nc(Nc3cc(C)[nH]n3)c2cc1OC,1.89,5.76,1.87,3.64,1.68,3.49,1.78,3.17,1.77,3.2,1.22,2.72,2.27,8.36,1.76,3.19,1.36,4.94,1.76,3.2
CCCCCCCC[N+](C)(CCCCCCCC)CCCCCCCC,0.324,1.37,0.37,1.15,0.371,1.67,0.427,1.46,0.528,1.79,0.715,2.1,0.165,0.408,0.0838,0.639,0.108,0.447,0.621,1.98
CCN(CC)C(=O)COc1ccc(Br)cc1Br,,> 100,,> 100,,> 100,,> 100,,> 100,,> 100,,> 100,,> 100,,> 100,,> 100
NCc1nnn(Cc2ccccc2)c1N,,> 100,,> 100,,> 100,,> 100,,> 100,,> 100,,> 100,,> 100,,> 100,,> 100
CN(C)CCCc1c[nH]c2ccccc12,,> 100,,> 100,,> 100,,> 100,,> 100,,> 100,,> 100,,> 100,,> 100,,> 100
CCCc1nc2c(C)cc(-c3nc4ccccc4n3C)cc2n1Cc1ccc(-c2ccccc2C(=O)O)cc1,32.4,> 100,68.4,> 100,50.6,> 100,25.6,> 100,25.7,> 100,20.3,> 100,28.6,> 100,22.6,61.3,23.2,> 100,> 100,> 100
